Assay results from PubChem BioAssay AID1963960 (Molecular Pharmacology Branch, DTP, NCI, 2024).

System: MDA-MB-468 spheroids with HUVEC/MSC, viability
Assay: Anticancer human tumor MDA-MB-468 cell line growth inhibition [PI3K];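 also: spheroids exposed to agents for seven days before readout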;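 as to viability, T/C: 100% = DMSO vehicle control viability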
Conditions: for IC50: curve of first compound; for viability, T/C: stronger effect = lower value
Summary of the method: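 Stroma-containing spheroids: tumor line, pooled-donor HUVEC, hMSC. Treatments: targeted agents with PI3K inhibitors. Dosing: clinically relevant, half-log spacing, 10 microM ceiling without known Cmax. Read-out: cell viability.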

[1] = second compound 0.0316 µM, first compound 0.0316 µM
[2] = second compound 0.0316 µM, first compound 0.1 µM
[3] = second compound 0.0316 µM, first compound 0.316 µM
[4] = second compound 0.0316 µM, first compound 1 µM
[5] = second compound 0.0316 µM, first compound 3.16 µM
[6] = second compound 0.0316 µM, first compound 10 µM
[7] = second compound 0.1 µM, first compound 0.0316 µM
[8] = second compound 0.1 µM, first compound 0.1 µM
[9] = second compound 0.1 µM, first compound 0.316 µM
[10] = second compound 0.1 µM, first compound 1 µM
[11] = second compound 0.1 µM, first compound 3.16 µM
[12] = second compound 0.1 µM, first compound 10 µM
[13] = second compound 0.316 µM, first compound 0.0316 µM
[14] = second compound 0.316 µM, first compound 0.1 µM
[15] = second compound 0.316 µM, first compound 0.316 µM
[16] = second compound 0.316 µM, first compound 1 µM
[17] = second compound 0.316 µM, first compound 3.16 µM
[18] = second compound 0.316 µM, first compound 10 µM
[19] = second compound 1 µM, first compound 0.0316 µM
[20] = second compound 1 µM, first compound 0.1 µM
[21] = second compound 1 µM, first compound 0.316 µM
[22] = second compound 1 µM, first compound 1 µM
[23] = second compound 1 µM, first compound 3.16 µM
[24] = second compound 1 µM, first compound 10 µM
[25] = second compound 3.16 µM, first compound 0.0316 µM
[26] = second compound 3.16 µM, first compound 0.1 µM
[27] = second compound 3.16 µM, first compound 0.316 µM
[28] = second compound 3.16 µM, first compound 1 µM
[29] = second compound 3.16 µM, first compound 3.16 µM
[30] = second compound 3.16 µM, first compound 10 µM
[31] = second compound 10 µM, first compound 0.0316 µM
[32] = second compound 10 µM, first compound 0.1 µM
[33] = second compound 10 µM, first compound 0.316 µM
[34] = second compound 10 µM, first compound 1 µM
[35] = second compound 10 µM, first compound 3.16 µM
[36] = second compound 10 µM, first compound 10 µM

C[C@@H](NC(=O)c1ncnc(N)c1Cl)c1ncc(C(=O)Nc2cc(C(F)(F)F)c(Cl)cn2)s1 + CC(Nc1ncnc2nc[nH]c12)c1cc2cccc(Cl)c2c(=O)n1-c1ccccc1
IC50 (second compound 0.0316 µM): > 10 µM
IC50 (second compound 0.1 µM): > 10 µM
IC50 (second compound 0.316 µM): > 10 µM
IC50 (second compound 1 µM): > 10 µM
IC50 (second compound 3.16 µM): > 10 µM
IC50 (second compound 10 µM): < 0.0316 µM
viability, T/C [1]: 107%
viability, T/C [2]: 114%
viability, T/C [3]: 92.5%
viability, T/C [4]: 109%
viability, T/C [5]: 91.3%
viability, T/C [6]: 94.9%
viability, T/C [7]: 83%
viability, T/C [8]: 94.3%
viability, T/C [9]: 93.3%
viability, T/C [10]: 89%
viability, T/C [11]: 93.5%
viability, T/C [12]: 83.7%
viability, T/C [13]: 84.8%
viability, T/C [14]: 76.8%
viability, T/C [15]: 83.1%
viability, T/C [16]: 82%
viability, T/C [17]: 75.5%
viability, T/C [18]: 83.7%
viability, T/C [19]: 70%
viability, T/C [20]: 65.8%
viability, T/C [21]: 75.3%
viability, T/C [22]: 81.8%
viability, T/C [23]: 75.2%
viability, T/C [24]: 64.5%
viability, T/C [25]: 61.8%
viability, T/C [26]: 60.2%
viability, T/C [27]: 63.7%
viability, T/C [28]: 55.7%
viability, T/C [29]: 61.8%
viability, T/C [30]: 58.9%
viability, T/C [31]: 42.3%
viability, T/C [32]: 40.6%
viability, T/C [33]: 46.1%
viability, T/C [34]: 53%
viability, T/C [35]: 41.7%
viability, T/C [36]: 39.2%

CCN1CCN(Cc2ccc(Nc3ncc(F)c(-c4cc(F)c5nc(C)n(C(C)C)c5c4)n3)nc2)CC1 + Cc1nc(NC(=O)N2CCCC2C(N)=O)sc1-c1ccnc(C(C)(C)C(F)(F)F)c1
IC50 (second compound 0.0316 µM): > 1 µM
IC50 (second compound 0.1 µM): > 1 µM
IC50 (second compound 0.316 µM): > 1 µM
IC50 (second compound 1 µM): 0.798 µM
IC50 (second compound 3.16 µM): 0.191 µM
IC50 (second compound 10 µM): < 0.00316 µM
viability, T/C (second compound 0.0316 µM, first compound 0.00316 µM): 97.9%
viability, T/C (second compound 0.0316 µM, first compound 0.01 µM): 90%
viability, T/C [1]: 83.8%
viability, T/C [2]: 113%
viability, T/C [3]: 90.8%
viability, T/C [4]: 59.9%
viability, T/C (second compound 0.1 µM, first compound 0.00316 µM): 98.3%
viability, T/C (second compound 0.1 µM, first compound 0.01 µM): 85.9%
viability, T/C [7]: 89.1%
viability, T/C [8]: 104%
viability, T/C [9]: 97.9%
viability, T/C [10]: 55.3%
viability, T/C (second compound 0.316 µM, first compound 0.00316 µM): 92.4%
viability, T/C (second compound 0.316 µM, first compound 0.01 µM): 94%
viability, T/C [13]: 93.2%
viability, T/C [14]: 81.3%
viability, T/C [15]: 80.9%
viability, T/C [16]: 52.7%
viability, T/C (second compound 1 µM, first compound 0.00316 µM): 94.9%
viability, T/C (second compound 1 µM, first compound 0.01 µM): 84.8%
viability, T/C [19]: 77%
viability, T/C [20]: 76.9%
viability, T/C [21]: 62.1%
viability, T/C [22]: 46.2%
viability, T/C (second compound 3.16 µM, first compound 0.00316 µM): 68.7%
viability, T/C (second compound 3.16 µM, first compound 0.01 µM): 58.7%
viability, T/C [25]: 61.1%
viability, T/C [26]: 64.8%
viability, T/C [27]: 37.7%
viability, T/C [28]: 41.6%
viability, T/C (second compound 10 µM, first compound 0.00316 µM): 39.1%
viability, T/C (second compound 10 µM, first compound 0.01 µM): 27.3%
viability, T/C [31]: 29.8%
viability, T/C [32]: 25.3%
viability, T/C [33]: 22%
viability, T/C [34]: 23.5%

C=CC(=O)N1CCN(c2nc(=O)n(-c3c(C)ccnc3C(C)C)c3nc(-c4c(O)cccc4F)c(F)cc23)C(C)C1 (stereo not drawn) + Cc1nc(NC(=O)N2CCCC2C(N)=O)sc1-c1ccnc(C(C)(C)C(F)(F)F)c1
IC50 (second compound 0.0316 µM): > 10 µM
IC50 (second compound 0.1 µM): > 10 µM
IC50 (second compound 0.316 µM): > 10 µM
IC50 (second compound 1 µM): 6.13 µM
IC50 (second compound 3.16 µM): 1.26 µM
IC50 (second compound 10 µM): < 0.0316 µM
viability, T/C [1]: 94.9%
viability, T/C [2]: 92.7%
viability, T/C [3]: 82.9%
viability, T/C [4]: 131%
viability, T/C [5]: 113%
viability, T/C [6]: 67.8%
viability, T/C [7]: 93.2%
viability, T/C [8]: 100%
viability, T/C [9]: 97.1%
viability, T/C [10]: 122%
viability, T/C [11]: 95.9%
viability, T/C [12]: 63.6%
viability, T/C [13]: 101%
viability, T/C [14]: 100%
viability, T/C [15]: 88.1%
viability, T/C [16]: 91.6%
viability, T/C [17]: 86.2%
viability, T/C [18]: 57.5%
viability, T/C [19]: 77.4%
viability, T/C [20]: 80.9%
viability, T/C [21]: 78.1%
viability, T/C [22]: 88.3%
viability, T/C [23]: 56.9%
viability, T/C [24]: 44.9%
viability, T/C [25]: 82.7%
viability, T/C [26]: 63.7%
viability, T/C [27]: 55.8%
viability, T/C [28]: 60.8%
viability, T/C [29]: 40.9%
viability, T/C [30]: 37.2%
viability, T/C [31]: 43.8%
viability, T/C [32]: 31.2%
viability, T/C [33]: 34.3%
viability, T/C [34]: 25.6%
viability, T/C [35]: 21.9%
viability, T/C [36]: 15.8%

CC(C)NCC(C(=O)N1CCN(c2ncnc3c2C(C)CC3O)CC1)c1ccc(Cl)cc1 (stereo not drawn) + Cc1nc(NC(=O)N2CCCC2C(N)=O)sc1-c1ccnc(C(C)(C)C(F)(F)F)c1
IC50 (second compound 0.0316 µM): 0.973 µM
IC50 (second compound 0.1 µM): 1.2 µM
IC50 (second compound 0.316 µM): 0.674 µM
IC50 (second compound 1 µM): 0.424 µM
IC50 (second compound 3.16 µM): 0.211 µM
IC50 (second compound 10 µM): < 0.0316 µM
viability, T/C [1]: 76.9%
viability, T/C [2]: 92.2%
viability, T/C [3]: 60.9%
viability, T/C [4]: 50.9%
viability, T/C [5]: 35.1%
viability, T/C [6]: 23.2%
viability, T/C [7]: 84.8%
viability, T/C [8]: 83.5%
viability, T/C [9]: 68%
viability, T/C [10]: 53.4%
viability, T/C [11]: 34.2%
viability, T/C [12]: 18.4%
viability, T/C [13]: 84.6%
viability, T/C [14]: 71.8%
viability, T/C [15]: 61%
viability, T/C [16]: 46.9%
viability, T/C [17]: 26.7%
viability, T/C [18]: 19.5%
viability, T/C [19]: 95.8%
viability, T/C [20]: 66.7%
viability, T/C [21]: 56.9%
viability, T/C [22]: 41.9%
viability, T/C [23]: 23.2%
viability, T/C [24]: 18%
viability, T/C [25]: 62.9%
viability, T/C [26]: 61%
viability, T/C [27]: 42.5%
viability, T/C [28]: 33%
viability, T/C [29]: 19.3%
viability, T/C [30]: 14.8%
viability, T/C [31]: 32.1%
viability, T/C [32]: 28.8%
viability, T/C [33]: 22%
viability, T/C [34]: 19.1%
viability, T/C [35]: 9.63%
viability, T/C [36]: 6.41%
